Laboratory results published in patent US20240360178A1, “MACROCYCLIC IMMUNOMODULATORS” (Bristol-Myers Squibb Company, priority 2021, published 2024).
pIC50: −log10 of the molar value. Positions of bridges follow the written chain, without caps; N, C: chain ends. Non-standard residues stand in square brackets, D forms with d. Residues, ends and D or L forms follow the SMILES beside them. *: point of attachment. Phe(4-COOH) = N[C@@H](Cc1ccc(C(=O)O)cc1)C(=O)O; Bip = N[C@@H](Cc1ccc(-c2ccccc2)cc1)C(=O)O; Phe(3-CN) = N#Cc1cccc(C[C@H](N)C(=O)O)c1; Phe(3-Me) = Cc1cccc(C[C@H](N)C(=O)O)c1; Ala(cPent) = N[C@@H](CC1CCCC1)C(=O)O; Val(3-OH) = CC(C)(O)[C@H](N)C(=O)O; NMeF = CN[C@@H](Cc1ccccc1)C(=O)O; 3Pal = N[C@@H](Cc1cccnc1)C(=O)O; 4Pal = N[C@@H](Cc1ccncc1)C(=O)O; Cha = N[C@@H](CC1CCCCC1)C(=O)O; Cit = NC(=O)NCCC[C@H](N)C(=O)O; dPip = O=C(O)[C@H]1CCCCN1; Carboxymethyl = O=C(O)C*; NMeA = CN[C@@H](C)C(=O)O; Nle = CCCC[C@H](N)C(=O)O; Orn = NCCC[C@H](N)C(=O)O; Dab = NCC[C@H](N)C(=O)O; Sar = CNCC(=O)O

target: T1, human PD-1 (Jurkat-PD-1 cells) / PE-labeled human PD-L1-Ig (Homo sapiens, UniProt Q15116); assay: Jurkat-PD-1 Cell Binding High-Content Screening Assay (CBA); Jurkat hPD1-PDL1 assay; conditions: Jurkat cell line over-expressing human PD-1; PE-labeled PD-L1-Ig 20 nM final; compound incubated 2 hours at 37° C.; read-out: Jurkat HPD1-PDL1 IC50
T1 construct: expressed in transfected cells; host or cells: Jurkat cell line over-expressing human PD-1
Method: The ability of the compounds of formula (I) to bind to PD-1 was investigated using a Jurkat-PD-1 Cell Binding High-Content Screening Assay.
Jurkat-PD-1 Cell Binding High-Content Screening Assay (CBA)
Phycoerythrin (PE) was covalently linked to the Ig epitope tag of human PD-L1-Ig and fluorescently-labeled PD-L1-Ig was used for binding studies with a Jurkat cell line over-expressing human PD-1 (Jurkat-PD-1). Briefly, 8×10^3 Jurkat-hPD-1 cells were seeded into 384 well plates in 20 μL of DMEM supplemented with 10% fetal calf serum. 100 nL of compound was added to cells followed by incubation at 37° C. for 2 hours. Then, 5 μL of PE-labeled PD-L1-Ig (20 nM final), diluted in DMEM supplemented with 10% fetal calf serum. […] Data was collected and processed using a Cell Insight NXT High Content Imager and associated software.

T1 sequence (Q15116 25-288): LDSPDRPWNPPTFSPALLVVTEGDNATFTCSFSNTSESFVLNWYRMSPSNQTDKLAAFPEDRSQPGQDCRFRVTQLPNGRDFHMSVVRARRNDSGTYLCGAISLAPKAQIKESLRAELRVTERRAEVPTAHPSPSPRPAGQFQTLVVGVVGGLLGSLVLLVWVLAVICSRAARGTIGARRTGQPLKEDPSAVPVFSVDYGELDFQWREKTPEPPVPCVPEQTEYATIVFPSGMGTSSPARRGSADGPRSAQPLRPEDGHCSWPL

| Structure (SMILES) | pIC50 |
| --- | --- |
| CC(C)C[C@@H]1NC(=O)[C@H](Cc2c[nH]c3ccccc23)NC(=O)[C@H](CC(=O)O)NC(=O)[C@H](Cc2ccc(O)cc2)NC(=O)[C@H](CC(N)=O)NC(=O)CSC[C@@H](C(=O)NCC(N)=O)NC(=O)[C@H](CO)NC(=O)[C@H](C(C)C)NC(=O)[C@H](CC(C)C)NC(=O)[C@H](CCN)NC(=O)[C@H]2CCCN2C(=O)[C@H](CCCN)NC(=O)[C@H](C(C)C)NC(=O)[C@H](Cc2ccc(-c3ccccc3)cc2)NC1=O [Example 1403] ({CH2CO}-NYDWL[Bip]V[Orn][dP][Dab]LVSCG-NH2; thioether N-14) | 7.15 |
| CC(C)C[C@@H]1NC(=O)[C@H](CCN)NC(=O)[C@H](Cc2ccccc2)N(C)C(=O)[C@H](C)N(C)C(=O)[C@H](CCCNC(=N)N)NC(=O)[C@H](Cc2ccc(-c3ccccc3)cc2)NC(=O)[C@H](C(C)C)NC(=O)[C@H](Cc2c[nH]c3ccccc23)NC(=O)[C@H](CC(=O)O)NC(=O)[C@H](Cc2ccc(O)cc2)NC(=O)[C@H](Cc2cccnc2)NC(=O)CSC[C@@H](C(=O)N[C@@H](C)C(N)=O)NC(=O)[C@H](CO)NC(=O)[C@H](C(C)C)NC1=O [Example 1306] ({CH2CO}-[3Pal]YDWV[Bip]R[NMeA][NMeF][Dab]LVSCA-NH2; thioether N-14) | 6.34 |
| CC(C)C[C@@H]1NC(=O)[C@H](Cc2c[nH]c3ccccc23)NC(=O)[C@H](CC(=O)O)NC(=O)[C@H](Cc2ccc(O)cc2)NC(=O)[C@H](Cc2ccccc2)NC(=O)CSC[C@@H](C(=O)N[C@H](C)C(N)=O)NC(=O)[C@H](CO)NC(=O)[C@H](C(C)C)NC(=O)[C@H](CC(C)C)NC(=O)[C@H](CC(N)=O)NC(=O)CN(C)C(=O)[C@H](C)N(C)C(=O)[C@H](C(C)C)NC(=O)[C@H](Cc2ccc(-c3ccccc3)cc2)NC1=O [Example 1151] ({CH2CO}-FYDWL[Bip]V[NMeA][Sar]NLVSC[dA]-NH2; thioether N-14) | 6.15 |
| CCCC[C@@H]1NC(=O)[C@H](CCCNC(=N)N)NC(=O)[C@H](Cc2ccccc2)N(C)C(=O)[C@H](C)N(C)C(=O)[C@H](CCCNC(=N)N)NC(=O)[C@H](Cc2ccc(-c3ccccc3)cc2)NC(=O)[C@H](C(C)C)NC(=O)[C@H](Cc2c[nH]c3ccccc23)NC(=O)[C@H](CC(=O)O)NC(=O)[C@H](Cc2ccc(O)cc2)NC(=O)[C@H](Cc2ccccc2)NC(=O)CSC[C@@H](C(=O)NCC(N)=O)NC(=O)[C@H](CO)NC(=O)[C@H](C(C)C)NC1=O [Example 1067] ({CH2CO}-FYDWV[Bip]R[NMeA][NMeF]R[Nle]VSCG-NH2; thioether N-14) | 6.80 |
| CC(C)C[C@@H]1NC(=O)[C@H](Cc2c[nH]c3ccccc23)NC(=O)[C@H](CC(=O)O)NC(=O)[C@H](Cc2ccc(O)cc2)NC(=O)[C@H](Cc2ccccc2)NC(=O)CSC[C@@H](C(=O)N[C@@H](CCCNC(=N)N)C(N)=O)NC(=O)[C@H](CO)NC(=O)[C@H](C(C)C)NC(=O)[C@H](CC(C)C)NC(=O)[C@H](CC(N)=O)NC(=O)CN(C)C(=O)[C@H](C)N(C)C(=O)[C@H](C(C)C)NC(=O)[C@H](Cc2ccc(-c3ccccc3)cc2)NC1=O [Example 1254] ({CH2CO}-FYDWL[Bip]V[NMeA][Sar]NLVSCR-NH2; thioether N-14) | 6.07 |
| CC(C)C[C@@H]1NC(=O)[C@H](CCCNC(=N)N)NC(=O)[C@H](Cc2ccccc2)N(C)C(=O)[C@H](C)N(C)C(=O)[C@H](CCCNC(=N)N)NC(=O)[C@H](Cc2ccc(-c3ccccc3)cc2)NC(=O)[C@H](C(C)C)NC(=O)[C@H](Cc2c[nH]c3ccccc23)NC(=O)[C@H](CC(=O)O)NC(=O)[C@H](Cc2ccc(O)cc2)NC(=O)[C@H](CCCCN)NC(=O)CSC[C@@H](C(=O)NCC(N)=O)NC(=O)[C@H](CO)NC(=O)[C@H](C(C)C)NC1=O [Example 1211] ({CH2CO}-KYDWV[Bip]R[NMeA][NMeF]RLVSCG-NH2; thioether N-14) | 6.19 |
| CC(C)C[C@@H]1NC(=O)[C@H](Cc2c[nH]c3ccccc23)NC(=O)[C@H](CC(=O)O)NC(=O)[C@H](Cc2ccc(OCC(=O)O)cc2)NC(=O)[C@H](Cc2ccncc2)NC(=O)CSC[C@@H](C(=O)N[C@@H](CCN)C(N)=O)NC(=O)[C@H](CO)NC(=O)[C@H](C(C)(C)O)NC(=O)[C@H](CC2CCCCC2)NC(=O)[C@H](CCN)NC(=O)[C@H]2CCCN2C(=O)[C@H](C)N(C)C(=O)[C@H](CCCNC(N)=O)NC(=O)[C@H](Cc2ccc(-c3ccccc3)cc2)NC1=O [Example 1181] ({CH2CO}-[4Pal]Y(Carboxymethyl)DWL[Bip][Cit][NMeA][dP][Dab][Cha][Val(3-OH)]SC[Dab]-NH2; thioether N-14) | 7.00 |
| CC(C)C[C@@H]1NC(=O)[C@H](CC(C)C)NC(=O)[C@H](CCCNC(=N)N)NC(=O)[C@H](Cc2ccccc2)N(C)C(=O)[C@H](C)N(C)C(=O)[C@H](CCCNC(=N)N)NC(=O)[C@H](Cc2ccc(-c3ccccc3)cc2)NC(=O)[C@H](C(C)C)NC(=O)[C@H](Cc2c[nH]c3ccccc23)NC(=O)[C@H](CC(=O)O)NC(=O)[C@H](Cc2ccc(O)cc2)NC(=O)[C@H](Cc2ccccc2)NC(=O)CSC[C@@H](C(=O)NCC(N)=O)NC(=O)[C@H](CO)NC1=O [Example 1325] ({CH2CO}-FYDWV[Bip]R[NMeA][NMeF]RLLSCG-NH2; thioether N-14) | 6.23 |

The remaining compounds from weak to strong by pIC50, led by results:

| pIC50 | Structure (SMILES) |
| --- | --- |
| 6.18 | CC(C)C[C@@H]1NC(=O)[C@H](CC(N)=O)NC(=O)CN(C)C(=O)[C@H](C)N(C)C(=O)[C@H](C(C)C)NC(=O)[C@H](Cc2ccc(-c3ccccc3)cc2)NC(=O)[C@H](CC2CCCC2)NC(=O)[C@H](Cc2c[nH]c3ccccc23)NC(=O)[C@H](CC(=O)O)NC(=O)[C@H](Cc2ccc(O)cc2)NC(=O)[C@H](Cc2ccccc2)NC(=O)CSC[C@@H](C(=O)N[C@@H](C)C(N)=O)NC(=O)[C@H](CO)NC(=O)[C@H](C(C)C)NC1=O [Example 1147] ({CH2CO}-FYDW[Ala(cPent)][Bip]V[NMeA][Sar]NLVSCA-NH2; thioether N-14) |
| 6.32 | CC(C)C[C@@H]1NC(=O)[C@H](Cc2c[nH]c3ccccc23)NC(=O)[C@H](CC(=O)O)NC(=O)[C@H](Cc2ccc(O)cc2)NC(=O)[C@H](Cc2ccccc2)NC(=O)CSC[C@@H](C(=O)N[C@@H](C)C(N)=O)NC(=O)[C@H]([C@@H](C)O)NC(=O)[C@H](C(C)C)NC(=O)[C@H](CC(C)C)NC(=O)[C@H](CC(N)=O)NC(=O)[C@H]2CCCN2C(=O)[C@H](CCN)NC(=O)[C@H](C(C)C)NC(=O)[C@H](Cc2ccc(-c3ccccc3)cc2)NC1=O [Example 1412] ({CH2CO}-FYDWL[Bip]V[Dab][dP]NLVTCA-NH2; thioether N-14) |
| 6.38 | CC(C)C[C@@H]1NC(=O)[C@H](CCCNC(=N)N)NC(=O)[C@H](Cc2ccccc2)N(C)C(=O)[C@H](C)N(C)C(=O)[C@H](CCCNC(=N)N)NC(=O)[C@H](Cc2ccc(-c3ccccc3)cc2)NC(=O)[C@H](C(C)C)NC(=O)[C@H](Cc2c[nH]c3ccccc23)NC(=O)[C@H](CC(=O)O)NC(=O)[C@H](Cc2ccc(C(=O)O)cc2)NC(=O)[C@H](CCC(N)=O)NC(=O)CSC[C@@H](C(=O)NCC(N)=O)NC(=O)[C@H](CO)NC(=O)[C@H](C(C)C)NC1=O [Example 1297] ({CH2CO}-Q[Phe(4-COOH)]DWV[Bip]R[NMeA][NMeF]RLVSCG-NH2; thioether N-14) |
| 6.49 | CC(C)C[C@@H]1NC(=O)[C@H](CC(N)=O)NC(=O)[C@H](Cc2ccccc2)N(C)C(=O)[C@H](C)N(C)C(=O)[C@H](CCCNC(=N)N)NC(=O)[C@H](Cc2ccc(-c3ccccc3)cc2)NC(=O)[C@H](C(C)C)NC(=O)[C@H](Cc2c[nH]c3ccccc23)NC(=O)[C@H](CC(=O)O)NC(=O)[C@H](Cc2ccc(O)cc2)NC(=O)[C@H](Cc2ccccc2)NC(=O)CSC[C@@H](C(=O)NCC(N)=O)NC(=O)[C@H](CO)NC(=O)[C@H](C(C)C)NC1=O [Example 1207] ({CH2CO}-FYDWV[Bip]R[NMeA][NMeF]NLVSCG-NH2; thioether N-14) |
| 6.62 | Cc1cccc(C[C@@H]2NC(=O)[C@H](CC(=O)O)NC(=O)[C@H](Cc3cccc(C#N)c3)NC(=O)[C@H](Cc3ccncc3)NC(=O)CSC[C@@H](C(=O)N[C@@H](CCN)C(N)=O)NC(=O)[C@H](CO)NC(=O)[C@H](C(C)(C)O)NC(=O)[C@H](CC3CCCCC3)NC(=O)[C@H](CCN)NC(=O)[C@H]3CCCN3C(=O)[C@H](C)N(C)C(=O)[C@H](Cc3ccc(OCC(=O)O)cc3)NC(=O)[C@H](Cc3ccc(-c4ccccc4)cc3)NC(=O)[C@H](Cc3ccc(OCC(=O)O)cc3)NC2=O)c1 [Example 1182] ({CH2CO}-[4Pal][Phe(3-CN)]D[Phe(3-Me)]Y(Carboxymethyl)[Bip]Y(Carboxymethyl)[NMeA][dP][Dab][Cha][Val(3-OH)]SC[Dab]-NH2; thioether N-14) |
| 7.05 | CC(C)C[C@@H]1NC(=O)[C@H](CCCNC(=N)N)NC(=O)[C@H](Cc2ccccc2)N(C)C(=O)[C@H](C)N(C)C(=O)[C@H](CCCN)NC(=O)[C@H](Cc2ccc(-c3ccccc3)cc2)NC(=O)[C@H](C(C)C)NC(=O)[C@H](Cc2c[nH]c3ccccc23)NC(=O)[C@H](CC(=O)O)NC(=O)[C@H](Cc2ccc(O)cc2)NC(=O)[C@H](Cc2cnc[nH]2)NC(=O)CSC[C@@H](C(=O)NCC(N)=O)NC(=O)[C@H](CO)NC(=O)[C@H](C(C)C)NC1=O [Example 1292] ({CH2CO}-HYDWV[Bip][Orn][NMeA][NMeF]RLVSCG-NH2; thioether N-14) |
| 7.15 | CC(C)C[C@@H]1NC(=O)[C@H](Cc2c[nH]c3ccccc23)NC(=O)[C@H](CC(=O)O)NC(=O)[C@H](Cc2ccc(O)cc2)NC(=O)[C@H](Cc2ccccc2)NC(=O)CSC[C@@H](C(=O)N[C@@H](C)C(N)=O)NC(=O)[C@H](CO)NC(=O)[C@H](C(C)C)NC(=O)[C@H](CC(C)C)NC(=O)[C@H](CC(N)=O)NC(=O)[C@H]2CCCCN2C(=O)[C@H](C)N(C)C(=O)[C@H](C(C)C)NC(=O)[C@H](Cc2ccc(-c3ccccc3)cc2)NC1=O [Example 1038] ({CH2CO}-FYDWL[Bip]V[NMeA][dPip]NLVSCA-NH2; thioether N-14) |
